“Also recorded” adds a separate entry of the source. Where two headings read alike, the source gives them in different places.
Columns and labels:
[1] = system: incubated bovine corneal endothelial cell; test: cell-activating effect, MTT assay-based method; conditions: for cell-activating effect (absorbance at 450 nm): 5 and 20 mM, 48 hrs incubation, vs control containing no HBA
Procedure: The D-form, D,L-form and L-form of D-3-HBA were dissolved in the DULBECCO's MEM salt incubation media at concentrations of 0 (control), 5 and 20 mM, respectively, and the resulting solutions were injected into a 24-well collagen-coated plate implanted (4×10^4 cell/ml) with a pre-incubated bovine corneal endothelial cell and then incubated for 48 hrs. After the incubation, 50 μl of cell-counting kit (product of DOJIN KAGAKU Ltd.) was added to each well to develop colors, and absorbance at 450 nm was measured by using each supernatant.

[2] = system: corneas of Dutch rabbits; conditions: 90 minutes irrigation
Procedure: Irrigating solution No.1 (Example) and solutions No.3, No.4 and No.5 (Comparative Examples) for testing were prepared by dissolving the predetermined amounts of the components listed in Table 2 and, finally, D-3-HBA so as to adjust the total amounts of the aqueous solutions to be 1 liter; adjusting the pHs of the solutions by diluted hydrochloric acid, and subjecting the solutions to aseptic treatment.
Dutch rabbits (male and female weighing 1.9 to 2.9 kg) were used for an experiment. Experiments were performed in rabbit, anesthetized with intramuscular xylazine hydrochloride (“celactal®”, a product Bayer AG.,) and ketamine hydrochloride (“ketalar®”, a product of Sankyo Co. Ltd,.) through intramuscular injection, a 3.2-mm-wide incision was made corneas limbusing a scalpel for ocular surgery. Subsequently, 18-gauge injection needles having a rounded tip were inserted in the anterior chambers through the incisions, and the irrigating solutions were allowed to irrigate at a flow rate of 10 ml/min for 90 minutes. After the irrigation, the incisions were sewed up once by a sewing needle with a suture. The corneal thicknesses were measured by the ultrasonic pachymeter used in Example 4 before and during the perfusion (at intervals of 30 minutes).

[3] = system: cultured bovine corneal endothelial cells damaged by ultrasound
Procedure: As an invasive model assuming a phacoemulsification and aspiration method used as a surgical method of cataract, incubated bovine corneal endothelial cells damaged by ultrasound were subjected to an experiment for examining the recovery of their barrier function.
Using the incubated bovine corneal endothelial cells damaged by ultrasound, the barrier function-recovering effects of D-3-HBA and oxyglutathione were subjected to an experiment in accordance with the following procedure.
The monolayer of cultured bovine corneal endothelial cells on a filter, which had been damaged by sonication to the cells at 92 W/cm^2 three course at intervals of 0.1 sec, was incubated in DULBECCO's MEM medium (with 10% of embryonic bovine serum) containing 20 mM of D-3-HBA or 0.3 mM of oxyglutathione.

Structure (SMILES)	cell-activating effect (absorbance at 450 nm) [1]	effect of keeping the change in the corneal thickness small ([2]; bicarbonate ions added to the irrigating solution (FIG. 5))	effect of keeping the change in the corneal thickness small ([2]; bicarbonate ions not added to the irrigating solution (FIG. 6))	cell-activating effect (absorbance at 450 nm) ([1]; listed as D-form)	optimum concentration for cell-activating effect ([1]; tested at 5 and 20 mM, 48 hrs) [mM]	recovery of the barrier function ([3]; 20 mM in MEM medium after sonication damage)	electrical resistance value of the endothelial layer ([3]; 20 mM in MEM medium, vs MEM with 0.3 mM oxyglutathione and MEM alone)
CC(O)CC(=O)O (racemic) [D,L-form, reference compound]	did not show a significant difference	–	–	–	–	–	–
C[C@H](O)CC(=O)O [L-form, reference compound]	hardly obtained; also recorded: did not show a significant difference in activity at any concentrations	–	–	–	–	–	–
C[C@@H](O)CC(=O)[O-].[Na+] [Solution D-3-HBA, sodium D-3-hydroxy butyrate]	the most active at any concentrations	significant	not significant	activity is obtained	20	quick recovery effect	closer to the value before the irradiation of ultrasound at any observation time

From patent US6495598B1, “Perfusate preparation for ophthalmic operation” (Ophtecs Corporation, priority 2001, dated 2002)
